We go through eight compounds from patent US20240043372A1, “SUBSTITUTED AROMATIC COMPOUNDS AND PHARMACEUTICAL COMPOSITIONS THEREOF” (PHARMACEUTIQUE INGENEW INC., priority 2020, published 2024).

In assay [1] the test system is PC-3 cells (human prostate cancer cells). The experiment in a line: PC-3 cell proliferation (MTT). It counts as cell-based. Conditions: 24 hours. As to the method:
Antiproliferative activity of representative compounds on cancer cells was also undertaken by using PC-3 cells (human prostate cancer cells). PC-3 cells were cultured for 24 hours in 96-well plates with or without Compounds or Positive Control (PCtrl: sodium 2-(2-hydroxy-3,5-dipentylphenyl)acetate) or Setogepram CAS No.: 1002101-19-0 from MedChemExpress LLC, USA) at various concentrations. The last four hours of incubation, 50 μl of a freshly made solution of MTT at 2 mg/ml in PBS were added. Cells were harvested, 150 μl of DMSO were added to solubilize the formazan crystal formed and the plates were read the plate at 570 nm.

The next assay has as its system human glioblastoma U87. Nature of the assay: Avatar CAM assay, U87 tumour. It counts as in vivo. Conditions: for Anticancer Activity U87: Avatar CAM, tumour volume at day 16, symbols X to XXXX not defined. As to the method:
(§1) In this example, representative compounds of the present disclosure were tested for their respective effect on tumors using a model of Avatar Chick Chorioallantoic Membrane (CAM) assay. CAM assays have been widely used to study angiogenesis and tumor invasion of colorectal, prostate and brain cancers, as well as for studying patient-derived xenograft for potential personalized medicine.
(§2) The present inventor has tested representative compounds from the present disclosure or a Positive Control (PCtrl: sodium 2-(2-hydroxy-3,5-dipentylphenyl)acetate) as per the following. Fertilized eggs from white leghorn chicken were used and incubated in an Ova-Easy egg incubator at 37° C. with 60% humidity. At day 3, eggs were cracked. At day 9, U87 (human glioblastoma) cell suspensions (1×10^6 cells), or Caki cells or patient-derived xenograph (glioblastoma fragment) were mixed (1:1) with growth factor reduced Matrigel™ in a total volume of 20 μl for cell lines and POX-patient fragments were placed directly on top of the CAM and were returned to the incubator. Intravenous injection at day 11 or topical administration (Day 11 to Day 16) with or without the compounds. At day 16, chick embryos were killed by decapitation. Tumours were removed and tumour volumes were calculated using the formula: (Dd^2/3).

In assay [2] the test system is carboplatin-resistant PDX glioblastoma (GBM20-75). Nature of the assay: Avatar CAM assay, patient-derived xenograft glioblastoma. Type of assay: in vivo, human. The conditions noted are these: FIG. 3, PDX glioblastoma resistant to carboplatin. As to the method: as §1, §2
In general terms: A xenograft is tissue or cells of one species grown in another, often human tumour cells in immunodeficient mice.

Assay [3] concerns human renal carcinoma Caki cells. The experiment in a line: Avatar CAM assay, Caki tumour. Type of assay: in vivo. The conditions noted are these: for Anticancer Activity Caki: Avatar CAM, tumour volume at day 16, symbols X to XXXX not defined; for anticancer activity relative to Sorafenib: FIG. 2, Caki cells in CAM Avatar model. As to the method: as §1, §2
Assay [4] relates to human fibrosarcoma HT1080 cell. The experiment in a line: Avatar CAM assay, HT1080 tumour. The conditions noted are these: tumour volume at day 16, symbols X to XXXX not defined. Type of assay: in vivo.
Assay [5] deals with PDX-fragments from IPF lungs. The experiment in a line: Avatar CAM model, PDX-IPF lung fragments (volume, Masson's trichrome). It counts as in vivo, human. The conditions noted are these: for collagen deposition in the PDX-IPF fragment: FIG. 5, Masson's trichrome staining. As to the method: Avatar CAM model was also used to determine the antifibrotic activity of the representative compounds. Briefly, fertilized eggs from white leghorn chicken were used and incubated in an Ova-Easy egg incubator at 37° C. with 60% humidity. At day 3, eggs were cracked. At day 9, PDX-fragments from IPF lungs were grafted on top of the CAM and were returned to the incubator. Treatment by intravenous injection of compounds was performed at day 11 and at day 16, chick embryos were killed by decapitation. IPF-PDX fragments were removed and volumes were calculated using the formula: (Dd^2/3). Fibrosis was determined by a Masson's trichrome staining.

Entries after “also recorded” stand apart in the source; their conditions may differ.

A word on the inhibition: it is the percentage by which the read-out fell short of the control. A high value points to a strong effect. Regarding `CCCCCc1cc(CCCCC)c(O)c(CC(=O)O)c1` [PCtrl, sodium 2-(2-hydroxy-3,5-dipentylphenyl)acetate, reference compound], in assay [1], 12.5 µM produced 0% inhibition, the inhibition at 25 µM is 0%, the inhibition at 50 µM came out at 0% and the inhibition at 100 µM came to 0%. This compound also came in with an inhibition at 200 µM in assay [1] of 20%.

Take `CCCCCc1cc(CCCCC)c(O)c(CC(N)=O)c1` [Representative Compound 1]: in assay [1], 12.5 µM produced 0% inhibition, 25 µM produced 0% inhibition, at 50 µM the inhibition was 0% and 100 µM produced 0% inhibition. In addition, at 200 µM the inhibition in assay [1] was 0%.

Regarding `CCCCCc1cc(CCO)c(O)c(CCCCC)c1` [Representative Compound 2], in the assay with human glioblastoma U87, the “Anticancer Activity U87” value is recorded as “XXX”. Further, the “growth (volume) response of PDX glioblastoma to treatment” value in assay [2] was “does not respond”. Moreover, in assay [3], the “Anticancer Activity Caki” value was “XXXX” and the “anticancer activity relative to Sorafenib” value is listed as “reach the anticancer activity of Sorafenib”. In assay [1], this compound showed an inhibition at 12.5 µM of 0%, an inhibition at 25 µM of 63.6%, an inhibition at 50 µM of 70% and an inhibition at 100 µM of 72.2%. This compound also yielded an inhibition at 200 µM in assay [1] of 66.3%.

In assay [1], `CCCCCc1cc(CCO)c(N)c(CCCCC)c1` [Representative Compound 3] came in with an inhibition at 12.5 µM of 0%, an inhibition at 25 µM of 39.1%, an inhibition at 50 µM of 67.4% and an inhibition at 100 µM of 62.1%. In addition, in assay [1], at 200 µM the inhibition was 65.8%.

In the case of `CCCCCc1cccc(CCO)c1` [Representative Compound 4], the “Anticancer Activity HT1080” value in assay [4] is reported as “XXX”. In assay [1], the inhibition at 62.5 µM turned out to be 26.1%, at 125 µM the inhibition was 30.3%, at 250 µM the inhibition was 74.2% and the inhibition at 500 µM was 72.9%. Moreover, 1000 µM produced 70.4% inhibition in assay [1]. For the same compound, the “Antifibrotic Activity PDX (IPF lungs)” value in assay [5] (Avatar CAM, reduction of volume growth of PDX-IPF fragments, symbols not defined) was “XXXX”. In addition, in assay [5] (FIG. 4, intravenous injection at day 11, volume at day 16), the “volume of the PDX-IPF fragments” value is recorded as “reduces significantly the volume”. Also, in assay [5], the “collagen deposition in the PDX-IPF fragment” value is on record as “reduce collagen deposition”.

Regarding `OCCc1cc(Cc2ccccc2)cc(Cc2ccccc2)c1` [Representative Compound 5], the “Anticancer Activity U87” value in the assay with human glioblastoma U87 is given as “XXXX”. The “anticancer activity relative to carboplatin” value in the assay on human glioblastoma U87 (FIG. 1, U87 in CAM Avatar model) is given as “reached the anticancer activity of carboplatin”. In assay [3], the “Anticancer Activity Caki” value is “XXXX” and the “anticancer activity relative to Sorafenib” value is listed as “reach the anticancer activity of Sorafenib”. Further, in assay [4], the “Anticancer Activity HT1080” value was “XXX”. In assay [1], this compound returned an inhibition at 12.5 µM of 1.7%, an inhibition at 25 µM of 42.8%, an inhibition at 50 µM of 70.6% and an inhibition at 100 µM of 72.2%. 200 µM produced 53% inhibition in assay [1].

In assay [1], `CCCCCc1cccc(CC(=O)O)c1` [Setogepram, reference compound] gave an inhibition at 62.5 µM of 16.8%, an inhibition at 125 µM of 5.7%, an inhibition at 250 µM of 10.4% and an inhibition at 500 µM of 0%. For the same compound, the inhibition at 1000 µM in assay [1] worked out at 0%. Besides, the “collagen deposition in the PDX-IPF fragment” value in assay [5] is recorded as “reduce collagen deposition; also recorded: reduced the collagen deposition”.

In the case of `N.N.O=C([O-])C1(C(=O)[O-])CCC1.[Pt+2]` [carboplatin, reference compound], the “growth (volume) response of PDX glioblastoma to treatment” value in assay [2] is reported as “effectively resistant”.
